Measurements: patent US8791143B2, “Anthranilic diamide derivatives having cyclic side-chains” (priority 2010, dated 2014)
Like-named read-outs stand apart in the source and are kept apart here. Blank lines part the entries; values can stand above or below the molecule they belong to.

Tests used:
[1] = log P by HPLC on reversed-phase columns (EEC Directive 79/831 Annex V.A8); assay type: physicochemical
[2] = system: caterpillars of the armyworm (Spodoptera frugiperda); assay: Spodoptera frugiperda test (SPODFR spray treatment); assay type: in vivo; conditions: Spodoptera frugiperda, 168 h, read-out: activity in % (caterpillars killed); for pest or weed control at 500 g/ha: application rate 500 g/ha
Boophilus microplus = Boophilus microplus test (BOOPMI injection); assay type: in vivo; conditions: Rhipicephalus microplus, 168 h; 20 μg/animal, injection into the abdomen, after 7 days; read-out: activity in % (no fertile eggs laid)
Experimental: (§1) Solvent: dimethyl sulphoxide
The active compound solution is injected into the abdomen (Boophilus microplus), and the animals are transferred into dishes and stored in a climate-controlled room.
The activity is assessed by […] of fertile eggs. 100% means that none of the ticks has laid any fertile eggs.

Lucilia cuprina larvae = assay: Lucilia cuprina test (LUCICU); assay type: in vivo; conditions: 1152 h, read-out: activity (kill in %)
Experimental: as §1
Vessels containing horse meat treated with the active ingredient preparation of the desired concentration are populated with about 20 Lucilia cuprina larvae.
(§2) After 48 days, the kill in % is determined.

[3] = system: larvae of the mustard beetle (Phaedon cochleariae); assay: Phaedon test (PHAECO spray treatment); conditions: Phaedon cochleariae, 168 h, read-out: activity in % (beetle larvae killed)
[4] = system: green peach aphid (Myzus persicae); assay: Myzus test (MYZUPE spray treatment); assay type: in vivo; conditions: Myzus persicae, 144 h, read-out: activity in % (aphids killed)
adult Musca domestica = assay: Musca domestica test (MUSCDO); assay type: in vivo; conditions: 1152 h, after 48 days, read-out: activity (kill in %)
Experimental: as §1
Vessels containing a sponge treated with the active compound preparation of the desired concentration are populated with adult Musca domestica.
as §2

[5] = reversed-phase C18 HPLC column, pH 2.7, HPLC reversed-phase C18, acidic range pH 2.7 (HCOOH), only or first value of the cell, read-out: log P
[6] = application rate 100 g/ha, after 6 days
[7] = application rate 100 g/ha, after 7 days
[8] = application rate 500 g/ha, after 6 days

SMILES: Cc1cc(Cl)cc(C(=O)NC2COC2)c1NC(=O)c1cc(Cn2cc(Br)c(C(F)(F)F)n2)nn1-c1ncccc1Cl [Example 24]
- chromatographic logP ([1]; pH 2.7, log P): 3.2
- pest or weed control at 100 g/ha [2]: 100%
- pest or weed control at 0.02 mg (Boophilus microplus): 100%
- pest or weed control at 100 ppm (Lucilia cuprina larvae): 100%
- pest or weed control at 100 g/ha [3]: 100%

SMILES: Cc1cc(C#N)cc(C(=O)NC2COC2)c1NC(=O)c1cc(Cn2nnc(C(F)(F)F)n2)nn1-c1ccccc1Cl [Example 26]
- chromatographic logP [1, 5]: 2.85
- pest or weed control at 100 g/ha [4, 6]: 100%
- pest or weed control at 100 g/ha [2, 7]: 100%
- pest or weed control at 0.02 mg (Boophilus microplus): 100%
- pest or weed control at 100 ppm (Lucilia cuprina larvae; 100 ppm, after 48 days): 100%
- pest or weed control at 100 ppm (adult Musca domestica; 100 ppm): 80%
- pest or weed control at 100 g/ha [3]: 100%

SMILES: Cc1cc(C#N)cc(C(=O)NC2COC2)c1NC(=O)c1cc(Cn2nnc(C(F)(F)F)n2)nn1-c1c(F)cccc1F [Example 27]
- chromatographic logP [1, 5]: 2.79
- pest or weed control at 100 g/ha [4, 6]: 80%
- pest or weed control at 100 g/ha [2, 7]: 100%
- pest or weed control at 0.02 mg (Boophilus microplus): 100%
- pest or weed control at 100 ppm (Lucilia cuprina larvae; 100 ppm, after 48 days): 100%
- pest or weed control at 20 ppm (adult Musca domestica): 100%
- pest or weed control at 100 g/ha [3]: 100%

SMILES: Cc1cc(C#N)cc(C(=O)NC2CCSC2=O)c1NC(=O)c1cc(Cn2nnc(C(F)(F)C(F)(F)F)n2)nn1-c1ncccc1Cl (stereo not drawn) [Example 40]
- chromatographic logP [1, 5]: 3.25
- pest or weed control at 500 g/ha ([2]; after 7 days): 100%
- pest or weed control at 0.02 mg (Boophilus microplus): 100%
- pest or weed control at 100 ppm (Lucilia cuprina larvae; 100 ppm, after 48 days): 100%
- pest or weed control at 500 g/ha [3]: 100%

SMILES: Cc1cc(Cl)cc(C(=O)N[C@@H]2CCOC2=O)c1NC(=O)c1cc(Cn2nnc(C(F)(F)C(F)(F)F)n2)nn1-c1ncccc1Cl [Example 43]
- log P (second value after the slash) ([1]; pH 2.7): 2.92
- chromatographic logP ([1]; pH 2.7, log P): 3.21
- pest or weed control at 500 g/ha [4]: 100%
- pest or weed control at 100 g/ha [2]: 100%
- pest or weed control at 0.02 mg (Boophilus microplus): 100%
- pest or weed control at 100 ppm (Lucilia cuprina larvae): 100%
- pest or weed control at 100 g/ha [3]: 100%

SMILES: Cc1cc(C#N)cc(C(=O)NCc2ccccc2)c1NC(=O)c1cc(Cn2nnc(C(F)(F)F)n2)nn1-c1ncccc1Cl [Example 70]
- chromatographic logP ([1]; pH 2.7, log P): 3.38
- pest or weed control at 100 g/ha [4]: 100%
- pest or weed control at 100 g/ha [2]: 100%
- pest or weed control at 100 g/ha [3]: 100%

SMILES: Cc1cc(Cl)cc(C(=O)Nc2ccccc2)c1NC(=O)c1cc(Cn2nnc(C(F)(F)F)n2)nn1-c1ncccc1Cl [Example 72]
- chromatographic logP ([1]; pH 2.7, log P): 3.81
- pest or weed control at 100 g/ha [4]: 80%
- pest or weed control at 100 g/ha [2]: 100%
- pest or weed control at 100 g/ha [3]: 100%

SMILES: Cc1cc(Cl)cc(C(=O)NC(C)c2ccccc2F)c1NC(=O)c1cc(Cn2nnc(C(F)(F)F)n2)nn1-c1ncccc1Cl (stereo not drawn) [Example 87]
- chromatographic logP ([1]; pH 2.7, log P): 3.98
- pest or weed control at 100 g/ha [4]: 80%
- pest or weed control at 100 g/ha [2]: 100%
- pest or weed control at 100 g/ha [3]: 100%

SMILES: Cc1cc(Cl)cc(C(=O)NCc2ccc(N)cc2)c1NC(=O)c1cc(Cn2nnc(C(F)(F)F)n2)nn1-c1ncccc1Cl [Example 140]
- chromatographic logP ([1]; pH 2.7, log P): 2.55
- pest or weed control at 100 g/ha [4]: 100%
- pest or weed control at 100 g/ha [2]: 100%
- pest or weed control at 100 g/ha [3]: 100%

SMILES: Cc1cc(Cl)cc(C(=O)NCc2ccc(F)cn2)c1NC(=O)c1cc(Cn2nnc(C(F)(F)F)n2)nn1-c1ncccc1Cl [Example 224]
- chromatographic logP ([1]; pH 2.7, log P): 3.24
- pest or weed control at 100 g/ha [4]: 90%
- pest or weed control at 100 g/ha [2]: 100%
- pest or weed control at 100 g/ha [3]: 100%

SMILES: Cc1cc(Cl)cc(C(=O)NCc2ncc(F)cc2F)c1NC(=O)c1cc(Cn2nnc(C(F)(F)F)n2)nn1-c1ncccc1Cl [Example 231]
- chromatographic logP ([1]; pH 2.7, log P): 3.5
- pest or weed control at 100 g/ha [4]: 90%
- pest or weed control at 100 g/ha [2]: 100%
- pest or weed control at 100 g/ha [3]: 100%

SMILES: Cc1cc(Cl)cc(C(=O)NC(C)c2ccc(Cl)cn2)c1NC(=O)c1cc(Cn2nnc(C(F)(F)F)n2)nn1-c1ncccc1Cl (stereo not drawn) [Example 236]
- chromatographic logP ([1]; pH 2.7, log P): 3.63
- pest or weed control at 100 g/ha [4]: 90%
- pest or weed control at 100 g/ha [2]: 100%
- pest or weed control at 100 g/ha [3]: 100%

Continued, in another order:

- chromatographic logP [1, 5]: 1.9
SMILES: Cc1cc(C#N)cc(C(=O)NC2CCN(Cc3ccccc3)C2)c1NC(=O)c1cc(Cn2nnc(C(F)(F)F)n2)nn1-c1ncccc1Cl (stereo not drawn) [Example 30]
- pest or weed control at 500 g/ha [4, 8]: 100%
- pest or weed control at 500 g/ha ([2]; after 7 days): 100%
- pest or weed control at 0.02 mg (Boophilus microplus): 100%
- pest or weed control at 100 ppm (Lucilia cuprina larvae; 100 ppm, after 48 days): 100%
- pest or weed control at 20 ppm (adult Musca domestica): 80%
- pest or weed control at 500 g/ha [3]: 100%

- chromatographic logP [1, 5]: 2.03
SMILES: Cc1cc(Cl)cc(C(=O)NC2CCN(Cc3ccccc3)C2)c1NC(=O)c1cc(Cn2nnc(C(F)(F)F)n2)nn1-c1ncccc1Cl (stereo not drawn) [Example 31]
- pest or weed control at 500 g/ha [4, 8]: 100%
- pest or weed control at 500 g/ha ([2]; after 7 days): 100%
- pest or weed control at 0.02 mg (Boophilus microplus): 100%
- pest or weed control at 100 ppm (Lucilia cuprina larvae; 100 ppm, after 48 days): 100%
- pest or weed control at 500 g/ha [3]: 100%

- chromatographic logP [1, 5]: 2.3
SMILES: Cc1cc(Cl)cc(C(=O)NC2CCN(Cc3ccccc3)C2)c1NC(=O)c1cc(Cn2nnc(C(F)(F)C(F)(F)F)n2)nn1-c1ncccc1Cl (stereo not drawn) [Example 33]
- pest or weed control at 500 g/ha ([2]; after 7 days): 100%
- pest or weed control at 0.02 mg (Boophilus microplus): 100%
- pest or weed control at 100 ppm (Lucilia cuprina larvae; 100 ppm, after 48 days): 100%
- pest or weed control at 500 g/ha [3]: 100%

- chromatographic logP [1, 5]: 3.68
SMILES: Cc1cc(C#N)cc(C(=O)NCc2ccc(S(F)(F)(F)(F)F)cc2)c1NC(=O)c1cc(Cn2nnnc2C(F)(F)F)nn1-c1ncccc1Cl [Example 69]
- pest or weed control at 100 g/ha [2, 7]: 100%
- pest or weed control at 0.02 mg (Boophilus microplus): 100%
- pest or weed control at 100 ppm (Lucilia cuprina larvae; 100 ppm, after 48 days): 100%
- pest or weed control at 20 ppm (adult Musca domestica): 80%
- pest or weed control at 100 g/ha [3]: 100%

- chromatographic logP [1, 5]: 3.65
SMILES: Cc1cc(Cl)cc(C(=O)NCc2ccc([N+](=O)[O-])cc2)c1NC(=O)c1cc(Cn2nnc(C(F)(F)F)n2)nn1-c1ncccc1Cl [Example 97]
- pest or weed control at 100 g/ha [4, 6]: 90%
- pest or weed control at 100 g/ha [2, 7]: 100%
- pest or weed control at 100 g/ha [3]: 100%

- chromatographic logP [1, 5]: 3.81
SMILES: Cc1cc(Cl)cc(C(=O)NCc2ccccc2OC(F)(F)F)c1NC(=O)c1cc(Cn2nnc(C(F)F)n2)nn1-c1ncccc1Cl [Example 150]
- pest or weed control at 100 g/ha [4, 6]: 100%
- pest or weed control at 100 g/ha [2, 7]: 100%
- pest or weed control at 100 g/ha [3]: 100%

- chromatographic logP [1, 5]: 3.78
SMILES: Cc1cc(Cl)cc(C(=O)NCc2ccc(OC(F)(F)F)cc2)c1NC(=O)c1cc(Cn2nnc(C(F)F)n2)nn1-c1ncccc1Cl [Example 151]
- pest or weed control at 100 g/ha [4, 6]: 100%
- pest or weed control at 100 g/ha [2, 7]: 100%
- pest or weed control at 100 g/ha [3]: 100%

- chromatographic logP [1, 5]: 3.87
SMILES: Cc1cc(Cl)cc(C(=O)NCc2ccc(OC(F)F)cc2)c1NC(=O)c1cc(Cn2nnc(C(F)(F)F)n2)nn1-c1ncccc1Cl [Example 152]
- pest or weed control at 100 g/ha [4, 6]: 100%
- pest or weed control at 100 g/ha [2, 7]: 100%
- pest or weed control at 100 g/ha [3]: 100%

- chromatographic logP [1, 5]: 3.89
SMILES: Cc1cc(C#N)cc(C(=O)NCc2ccccc2OC(F)(F)F)c1NC(=O)c1cc(Cn2nnc(C(F)(F)F)n2)nn1-c1ncccc1Cl [Example 153]
- pest or weed control at 100 g/ha [4, 6]: 90%
- pest or weed control at 100 g/ha [2, 7]: 100%
- pest or weed control at 100 g/ha [3]: 100%

- chromatographic logP [1, 5]: 4.3
SMILES: O=C(NCc1ccccc1OC(F)(F)F)c1cc(Br)cc(Cl)c1NC(=O)c1cc(Cn2nnc(C(F)(F)F)n2)nn1-c1ncccc1Cl [Example 193]
- pest or weed control at 100 g/ha [4, 6]: 90%
- pest or weed control at 100 g/ha [2, 7]: 100%
- pest or weed control at 100 g/ha [3]: 100%

- chromatographic logP [1, 5]: 3.9
SMILES: O=C(NCc1ccc(Cl)cc1)c1cc(Cl)cc(F)c1NC(=O)c1cc(Cn2nnc(C(F)(F)F)n2)nn1-c1ncccc1Cl [Example 206]
- pest or weed control at 100 g/ha [4, 6]: 100%
- pest or weed control at 100 g/ha [2, 7]: 100%
- pest or weed control at 100 g/ha [3]: 100%
